Experimental data taken from article PMC10005185, “Structure-guided engineering of a receptor-agonist pair for inducible activation of the ABA adaptive response to drought” (Science Advances, 2023).

Columns and labels:
ΔNHAB1 with AtPYL1 = molecular target: T1, ΔNHAB1 with AtPYL1 (Arabidopsis thaliana, UniProt Q8VZS8); assay: PP2C inhibition assay, HAB1 with AtPYL1; type: biochemical; conditions: read-out: inhibition of HAB1
T1 construct: His; made in house
Method: (§1) His-tagged receptors and phosphatases were purified using nickel–nitrilotriacetic acid (Ni-NTA) affinity chromatography. Protein integrity was analyzed by SDS–polyacrylamide gel electrophoresis, followed by InstantBlue staining. Phosphatase activity was measured using p-Nitrophenyl Phosphate (pNPP) (25 mM) as substrate, 10 mM MnCl2,1 μM PP2C, and 2 μM of the indicated receptors. Proteins were incubated with the ligands for 10 min at room temperature. pNPP was then added to start the reactions, and the absorbance at 405 nm was monitored for 20 min in a ViktorX5 plate reader. Assays were repeated twice. For dose-response experiments, IC50 values were obtained with GraphPad Prism 9 using a nonlinear regression curve fit. Each ligand concentration was tested in triplicate. Phosphatase activity of ABI1 was measured using RRA(phosphoT)VA peptide as a substrate, as described ([27]).

ΔNHAB1 with AtPYL5 = molecular target: T2, ΔNHAB1 with AtPYL5 (Arabidopsis thaliana, UniProt Q9FLB1); assay: PP2C inhibition assay, HAB1 with AtPYL5; type: biochemical; conditions: read-out: inhibition of HAB1
T2 construct: His; made in house
Method: as §1

AtHAB1ΔN with CsPYL1^5m = AtHAB1ΔN with CsPYL1^5m (Citrus sinensis, UniProt A0A067E666, F137I/T135L/T153I/V112L/V168A); assay: PP2C inhibition assay, HAB1 with CsPYL1^5m; type: biochemical, Citrus sinensis (CsPYL1^5m); Arabidopsis thaliana (HAB1); conditions: IC50 for inhibition of HAB1 (ΔNHAB1) in the presence of CsPYL1^5m, pNPP as substrate
Method: as §1, with “Proteins were incubated with the ligands for 10 min at room temperature. pNPP was then added to start the reactions, and the absorbance at 405 nm was monitored for 20 min in a ViktorX5 plate reader.” left out

ABI1 with AtPYL1 = molecular target: T3, ABI1 with AtPYL1 (Arabidopsis thaliana, UniProt Q8VZS8); assay: PP2C inhibition assay, ABI1 with AtPYL1; type: biochemical; conditions: 1 µM phosphatase:2 µM receptor; read-out: IC50 of ABI1 with AtPYL1
T3 construct: His; made in house
Method: as §1, with “([27]). […]” for “([27]).”
(§2) (D) Dose response analysis of iSB09 or ABA-dependent inhibition of ABI1 (blue and black lines, respectively) in presence of either AtPYL1 or AtPYR1. Values (average of duplicates) show PP2C activity after incubation with the indicated concentration of ligand and receptor at 1:2 ratio (1 µM phosphatase:2 µM receptor). […]
(§3) whereas with AtPYR1 was 200 nM and 213 nM, for ABA and iSB09, respectively. Ligands were assayed

ABI1 with AtPYR1 = molecular target: T4, ABI1 with AtPYR1 (Arabidopsis thaliana, UniProt O49686); assay: PP2C inhibition assay, ABI1 with AtPYR1; type: biochemical; conditions: 1 µM phosphatase:2 µM receptor; read-out: IC50 of ABI1 with AtPYR1
T4 construct: His; made in house
Method: as §1, with “([27]). […]” for “([27]).”
as §2, §3

HAB1 with PYR1 = molecular target: T5, HAB1 with PYR1 (Arabidopsis thaliana, UniProt O49686); assay: PP2C inhibition assay, HAB1 with PYR1; type: biochemical; conditions: 1 μM iSB09, PYR1
T5 construct: His; made in house
Method: as §1

HAB1 with PYL2 = molecular target: T6, HAB1 with PYL2 (Arabidopsis thaliana, UniProt O80992); assay: PP2C inhibition assay, HAB1 with PYL2; type: biochemical; conditions: 1 μM iSB09, PYL2
T6 construct: His; made in house
Method: as §1

CsPYL1^5m:ΔNHAB1 = CsPYL1^5m:ΔNHAB1 (Citrus sinensis, UniProt A0A067E666, F137I/T135L/T153I/V112L/V168A); assay: biochemical
Method: To obtain the Kd values, the data were analyzed using nonlinear least-squares regression using a model considering a single set of binding sites implemented in Origin 7.0 (OriginLab).

[1] = system: Arabidopsis thaliana seedlings; assay: Root growth assay; type: in vivo; conditions: 10 μM
Method: Seedlings were grown on vertically oriented Murashige and Skoog (MS) plates for 4 to 5 days. Afterward, seedlings were transferred to MS supplemented with the indicated concentrations of the different ligands and kept on vertical orientation. Ten days later, the plates were scanned on a flatbed scanner to produce image files suitable for quantitative analysis of root growth using the NIH Image software ImageJ. The experiment was performed in triplicate (n = 13 to 16). Statistical comparisons were performed by either pairwise t tests or one-way ANOVA using GraphPad Prism 9.

[2] = system: Nicotiana benthamiana WT plants; assay: IR thermography of leaf temperature, N. benthamiana; type: in vivo; conditions: nontransformed leaves, 24 hours after spraying, 50 μM ABA or 100 μM iSB07 or iSB09, compared to mock
Method: IR images were taken using a FLIR […] thermocamera 1 day after the treatment (for N. benthamiana) or 2 and 5 days (for S. lycopersicum). Quantification was performed using the FLIR tools software on fully expanded leaves by analyzing 10 sections per leaf. At least six plants per genotype and treatment were analyzed in each experiment. Experiments were repeated twice. The average plant temperature ± SD of all the plants for each treatment and genotype was calculated and used to report the increase in temperature produced by each treatment. Statistical comparisons among genotypes were performed by either pairwise t tests or one-way ANOVA.

AtPYL5:ΔNHAB1 = AtPYL5:ΔNHAB1 (Arabidopsis thaliana, UniProt Q9FLB1); assay: Native red electrophoresis of ligand-induced ternary complex
Chain of AtPYL5:ΔNHAB1 (Q9FLB1 whole entry, stated change not applied): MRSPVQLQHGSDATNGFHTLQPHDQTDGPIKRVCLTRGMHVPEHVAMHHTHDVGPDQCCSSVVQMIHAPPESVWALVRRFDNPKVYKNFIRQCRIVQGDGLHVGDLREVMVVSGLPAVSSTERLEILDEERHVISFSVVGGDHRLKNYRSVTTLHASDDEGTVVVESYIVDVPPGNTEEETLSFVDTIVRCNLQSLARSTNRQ
Method: Electrophoresis was performed at a constant current of 25 mA for 150 min at 4°C. Proteins were detected in gel by InstantBlue staining, and band quantification was performed using the ImageJ software. To obtain apparent Kd values, the proportion of ternary complex formed (fraction bound) and the ABA or iSB09 free concentration in each lane were calculated and plotted as represented in Fig. 3 (E and F). Then, the dose-response curves were fitted to the classical Hill equation using the GraphPad Prism software.

Chain of CsPYL1^5m:ΔNHAB1 (A0A067E666 1-209 V112L/T135L/F137I/T153I/V168A): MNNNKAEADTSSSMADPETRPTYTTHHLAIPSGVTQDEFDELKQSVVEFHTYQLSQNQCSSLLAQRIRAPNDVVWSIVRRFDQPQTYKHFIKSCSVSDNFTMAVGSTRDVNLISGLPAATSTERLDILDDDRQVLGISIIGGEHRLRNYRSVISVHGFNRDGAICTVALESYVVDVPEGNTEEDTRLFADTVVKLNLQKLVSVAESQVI
Chain of CsPYL1^5m:ΔNHAB1 (Q9CAJ0 179-511 partner): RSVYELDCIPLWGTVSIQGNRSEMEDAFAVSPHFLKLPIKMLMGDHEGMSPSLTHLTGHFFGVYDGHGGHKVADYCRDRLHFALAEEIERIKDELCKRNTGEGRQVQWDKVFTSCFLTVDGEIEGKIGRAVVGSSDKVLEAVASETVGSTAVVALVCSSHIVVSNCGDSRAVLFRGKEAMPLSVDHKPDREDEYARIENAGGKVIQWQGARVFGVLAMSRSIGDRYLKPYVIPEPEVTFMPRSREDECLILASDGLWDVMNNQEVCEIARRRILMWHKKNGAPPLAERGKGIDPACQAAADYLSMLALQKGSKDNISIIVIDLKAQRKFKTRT
Chain of AtHAB1ΔN with CsPYL1^5m (A0A067E666 1-209 V112L/T135L/F137I/T153I/V168A): as the sequence (A0A067E666 1-209 V112L/T135L/F137I/T153I/V168A) above
Chain of AtHAB1ΔN with CsPYL1^5m (Q9CAJ0 179-511 partner): as the sequence (Q9CAJ0 179-511 partner) above
T1 sequence (Q8VZS8 whole entry, stated change not applied): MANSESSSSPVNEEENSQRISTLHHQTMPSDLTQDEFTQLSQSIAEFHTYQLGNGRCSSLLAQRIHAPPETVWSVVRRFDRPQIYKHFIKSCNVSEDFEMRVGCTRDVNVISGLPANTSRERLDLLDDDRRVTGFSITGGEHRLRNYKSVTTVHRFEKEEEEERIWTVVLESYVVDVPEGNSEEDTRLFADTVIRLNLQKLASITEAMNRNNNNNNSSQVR
T3 sequence (Q8VZS8 whole entry): as the sequence (Q8VZS8 whole entry, stated change not applied) above
T3 sequence (P49597 whole entry partner): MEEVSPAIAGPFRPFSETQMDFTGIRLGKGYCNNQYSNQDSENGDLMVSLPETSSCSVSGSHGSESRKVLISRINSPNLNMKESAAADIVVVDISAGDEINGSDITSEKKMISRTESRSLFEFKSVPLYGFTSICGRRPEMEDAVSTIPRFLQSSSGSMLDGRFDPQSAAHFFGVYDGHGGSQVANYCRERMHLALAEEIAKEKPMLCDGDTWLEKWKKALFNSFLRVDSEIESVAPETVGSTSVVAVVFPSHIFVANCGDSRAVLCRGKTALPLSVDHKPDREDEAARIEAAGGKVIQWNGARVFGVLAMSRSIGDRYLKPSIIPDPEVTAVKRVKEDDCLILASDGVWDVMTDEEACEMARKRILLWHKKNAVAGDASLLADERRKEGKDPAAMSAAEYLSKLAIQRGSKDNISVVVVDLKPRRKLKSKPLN
T4 sequence (O49686 whole entry): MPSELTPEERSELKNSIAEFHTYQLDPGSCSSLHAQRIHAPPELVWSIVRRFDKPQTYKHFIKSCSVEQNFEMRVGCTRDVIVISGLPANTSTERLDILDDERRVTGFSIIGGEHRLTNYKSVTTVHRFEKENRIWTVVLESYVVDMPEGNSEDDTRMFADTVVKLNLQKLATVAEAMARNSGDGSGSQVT
T4 sequence (P49597 whole entry partner): as the sequence (P49597 whole entry partner) above
T5 sequence (O49686 whole entry): as the sequence (O49686 whole entry) above
T5 sequence (Q9CAJ0 179-511 partner limits assumed): as the sequence (Q9CAJ0 179-511 partner) above
T6 sequence (O80992 whole entry): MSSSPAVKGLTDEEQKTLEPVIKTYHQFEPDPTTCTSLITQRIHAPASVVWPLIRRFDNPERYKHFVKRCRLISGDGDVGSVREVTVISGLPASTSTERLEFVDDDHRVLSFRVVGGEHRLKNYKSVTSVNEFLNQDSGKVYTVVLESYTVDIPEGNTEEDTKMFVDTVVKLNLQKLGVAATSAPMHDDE
T6 sequence (Q9CAJ0 179-511 partner limits assumed): as the sequence (Q9CAJ0 179-511 partner) above
T2 sequence (Q9FLB1 whole entry, stated change not applied): as the sequence (Q9FLB1 whole entry, stated change not applied) above

`CCn1c(=O)cc(C)c2cc(CNS(=O)(=O)c3ccccc3)ccc21` [iSB09] was tested, and the inhibition at 1 µM (ΔNHAB1 with AtPYL1) was 60 to 70%, the inhibition at 1 µM (ΔNHAB1 with AtPYL5) was 60 to 70% and the IC50 (AtHAB1ΔN with CsPYL1^5m) was 0.316 µM. For the same compound, the IC50 (ABI1 with AtPYL1) was 0.226 µM, the IC50 (ABI1 with AtPYR1) was 0.213 µM and the inhibition at 1 µM (HAB1 with PYR1) was 60 to 70%. The inhibition at 1 µM (HAB1 with PYL2) was 60 to 70%, the Kd (CsPYL1^5m:ΔNHAB1) was 0.56 µM and the “inhibition of root growth” value ([1]; CsPYL1^5m lines) was “marked inhibition”. For the same compound, the “inhibition of root growth” value ([1]; WT plants) was “did not significantly inhibit”, the “leaf temperature by thermal imaging” value [2] was “increased leaf temperature” and the Kd (AtPYL5:ΔNHAB1) was 1.2 µM.
